≈ marks a conversion by molar mass, not a printed value.
Tests used:
[1] = Inhibition of MurF (unknown origin)
[2] = Inhibition of MurD (unknown origin)
[3] = Inhibition of MurC (unknown origin)
[4] = Inhibition of MurC (unknown origin) at 100 uM relative to control
[5] = Inhibition of MurD (unknown origin) at 100 uM relative to control
[6] = Inhibition of MurE (unknown origin) at 100 uM relative to control
[7] = Inhibition of MurF (Unknown origin) at 100 uM relative to control
Staphylococcus aureus = assay: Antibacterial activity against Staphylococcus aureus ATCC 29213 assessed as inhibition of bacterial growth; format: functional
Escherichia coli = assay: Antibacterial activity against Escherichia coli ATCC 25922 assessed as inhibition of bacterial growth; format: functional
[8] = Inhibition of MurE (unknown origin)

IC50 [1] [µM]	IC50 [2] [µM]	IC50 [3] [µM]	inhibition [4] [%]	inhibition [5] [%]	inhibition [6] [%]	inhibition [7] [%]	MIC (Staphylococcus aureus) [µM]	MIC (Escherichia coli) [µM]	IC50 [8] [µM]	SMILES
144	126	153	44	45	32	44	125 (≈ 43.1 µg/mL)	> 250		Cc1cc(-c2ccco2)cc(C)c1/C=C/c1cncc(C2=NCCO2)c1
			14	9	19	15	> 250	> 250		Cc1cc(-c2ccncc2)cc(C)c1/C=C/c1cncc(-c2nnn[nH]2)c1
			15	16	23	16	> 250	> 250		COC(=O)c1cccc(-c2cc(C)c(/C=C/c3cncc(-c4nnn[nH]4)c3)c(C)c2)c1
			10	10	4	0	> 250	> 250		Cc1cc(-c2cccnc2)cc(C)c1/C=C/c1cncc(-c2nn[nH]n2)c1
59	104		30	55	51	74	> 250	> 250	79	Cc1cc(-c2ccco2)cc(C)c1/C=C/c1cncc(-c2nn[nH]n2)c1
17	56		23	73	55	84	> 250	> 250	97	Cc1cc(-c2ccco2)cc(C)c1/C=C/c1cc(-c2nnn[nH]2)ccn1
			22	1	16	29	250 (≈ 86.6 µg/mL)	> 250		Cc1cc(N2CCCC2)cc(C)c1/C=C/c1cncc(-c2nnn[nH]2)c1
			15	14	30	38	> 250	> 250		Cc1cc(N2CCCCC2=O)cc(C)c1/C=C/c1cncc(-c2nnn[nH]2)c1
			30	30	37	25	250 (≈ 95.9 µg/mL)	> 250		COc1ccc(-c2cc(C)c(/C=C/c3cncc(-c4nnn[nH]4)c3)c(C)c2)cc1
			16	22	18	12	> 250	> 250		Cc1cc(-c2ccoc2)cc(C)c1/C=C/c1cncc(-c2nnn[nH]2)c1
			33	26	39	18	> 250	> 250		Cc1cc(-c2cccc(C(=O)O)c2)cc(C)c1/C=C/c1cncc(-c2nnn[nH]2)c1
			22	27	35	21	> 250	> 250		Cc1cc(-c2ccco2)cc(C)c1/C=C/c1cncc(C#N)c1
71	85	82	56	70	46	58	> 250	> 250	150	Cc1cc(-c2ccco2)cc(C)c1/C=C/c1cncc(C2=NCCS2)c1
109	64	153	43	70	27	47	> 250	> 250		Cc1cc(-c2ccco2)cc(C)c1/C=C/c1cncc(C(=O)O)c1
31	168		20	40	51	76	> 250	> 250	156	Cc1cc(-c2ccco2)cc(C)c1/C=C/c1cncc(C(N)=O)c1
	107		5	64	30	21	> 250	> 250		Cc1cc(-c2ccco2)cc(C)c1/C=C/c1cccc(-c2nnn[nH]2)c1
			15	23	21	18	> 250	> 250		COc1cccc(-c2cc(C)c(/C=C/c3cncc(-c4nnn[nH]4)c3)c(C)c2)c1
	104		35	42	33	0	125 (≈ 47.9 µg/mL)	> 250		COc1ccccc1-c1cc(C)c(/C=C/c2cncc(-c3nnn[nH]3)c2)c(C)c1
			25	14	23	24	> 250	> 250		Cc1cc(-c2cccc(CO)c2)cc(C)c1/C=C/c1cncc(-c2nnn[nH]2)c1
201	160	151	42	47	10	40	31 (≈ 10.6 µg/mL)	250 (≈ 85.9 µg/mL)		Cc1cc(-c2ccco2)cc(C)c1/C=C/c1cncc(C2=NCCN2)c1
	131		30	46	38	32	250 (≈ 89.1 µg/mL)	> 250		Cc1cc(Br)cc(C)c1/C=C/c1cncc(-c2nnn[nH]2)c1
